Results on 89 compounds are retold here after a melting point compilation (Tetko et al.; mined from patent text by program, amines drawn as free bases though some values may be those of a salt).

Regarding `N#Cc1ccccc1-c1cccc(Cc2ccc(OCc3ccccc3)cc2)c1Nn1cnnc1`, the melting point (usually the temperature, or range, at which the solid turns liquid) lay within 171 to 173 °C.

`CNc1ccc(-c2nc(C)c(-c3cccnc3)[nH]2)c(OC)c1`: the melting point was 54 to 56 °C.

The compound `CC(C)(C)CNc1nc(C(=O)C(=O)c2ccccc2)ccc1[N+](=O)[O-]` displayed a melting point of 88 to 90 °C.

Take `Cc1ccc(-n2nc(C(C)(C)C)cc2NC(=O)Nc2ccc(-c3cnc4c(c3)NC(=O)CO4)c3ccccc23)cc1`: the melting point was > 200 °C.

The compound `Nc1ncccc1OCc1ccc(Cl)cc1` registered a melting point of 121 to 123 °C.

In turn, `COc1ccccc1-n1c(=O)[nH]c2c(C(N)=O)nc(-c3cccc(OC(F)(F)F)c3)nc21` came in with a melting point of 269 to 272 °C.

`N#Cc1cccc(-c2ccc(OCC(CN3C(=O)CCC3=O)N(O)C=O)cc2)c1` (centres undefined) returned a melting point of 128 °C.

Take `c1csc(-c2ncc(COc3ccc(CCCCn4ccnc4)cc3)s2)c1`: the melting point lay in the range of 128 to 129 °C.

With `O=[N+]([O-])c1ccc(Br)cc1CS(=O)(=O)c1ccccc1`, the melting point fell in the range of 143 to 144 °C.

For the compound `Nc1cc(OC2CCNCC2)c(F)c2c1c(=O)c(C(=O)O)cn2C1CC1`, the melting point was > 300 °C.

Turning to `O=C(O)/C=C/C(=O)/C=C/c1ccc(C(F)(F)F)cc1`, the melting point was in the range of 192 to 195 °C.

In turn, `OCC1CC(O)C(n2cnc3c(-n4cccc4)ncnc32)O1` (centres undefined) came in with a melting point of 175 to 176 °C.

In the case of `CN1C(=O)CC[C@]2(C)c3ccc(-c4cc(C(F)(F)F)cc(C(F)(F)F)c4)cc3CC[C@@H]12`, the melting point lay within 110 to 112 °C.

Consider `O=S1(=O)CS(=O)(=O)OCCO1`, for which the melting point lay within 176 to 180 °C.

`O=C(NNS(=O)(=O)c1ccccc1)c1ccc2c(c1)OCO2`: the melting point lay in the range of 156 to 158 °C.

`COc1ccc(C(=O)Nc2ccc3ccc(Oc4ccccc4)nc3n2)cc1`: the melting point stood at 160 °C.

Compound `CC1Cc2ccc(Cl)cc2C(c2ccc([N+](=O)[O-])cc2)O1` (centres undefined) displayed a melting point of 120 to 123 °C.

The compound `COCCC(=O)Nc1ccc(CCCc2ccccc2OCc2ccccc2)cc1` gave a melting point of 65 to 66 °C.

Take `O=C(C=Cc1cccnc1)NCCCCC1CCN(C(=O)c2ccccc2)CC1`: the melting point was in the range of 100 to 102 °C.

In the case of `CCCCN1CCC(C(=O)O)(S(=O)(=O)c2ccc(OCCC(C)C)cc2)CC1`, the melting point came to 188 °C.

`CSC(=S)C1(c2ccccn2)SCCCS1` yielded a melting point of 91 °C.

Compound `Cc1cc(C(O)C[N+](=O)[O-])cc(C)c1Oc1ccc([N+](=O)[O-])c(Nc2ccc(C#N)cc2)n1` (centres undefined) came in with a melting point of 230 to 234 °C.

In turn, `CCN(C)C(=O)Nc1ccc2c(c1)C(c1ccccc1F)=NCC(=O)N2C` had a melting point of 165 to 168 °C.

Take `CCc1nn(Cc2noc(O)n2)c(CC)c1Oc1cc(Cl)cc(Cl)c1`: the melting point is 94 to 96 °C.

For `COc1ccc(Cl)c(Oc2c(Cl)ncnc2NS(=O)(=O)c2ccc(C(C)C)cn2)c1`, the melting point was in the range of 174 to 175 °C.

`COc1ccc(OCCCCCN2CCC(CNC(=O)c3cc(Cl)c(N)cc3OC)CC2)cc1OC` yielded a melting point of 85 to 87 °C.

`Cc1nc(-c2ccccc2)nc(-c2cccc([N+](=O)[O-])c2)c1C(=O)NCN1CCN(C)CC1` gave a melting point of 129 to 131 °C.

Compound `CCOC(=O)c1nc2ccccc2n(CCO)c1=O` registered a melting point of 137 to 138 °C.

`CC(C)(C)Nc1nc2cc(Cl)c(Cl)cc2n1C1CC(CO)C(O)C1O` (centres undefined): the melting point was 130 to 132 °C.

For `N#Cc1ccc(S(=O)(=O)Nc2ccc(Br)c3cc[nH]c23)cc1`, the melting point lay in the range of 214 to 216 °C.

Regarding `CCCCCCCCCCCCCCCCCc1cc(O)c(CC)c(=O)o1`, the melting point was in the range of 101 to 102 °C.

`CCCCc1c(Cc2ccc(-c3ccccc3C(=O)O)cc2)c(=O)nc2n1CC(=O)N2` gave a melting point of 220 to 222 °C.

Regarding `O=C([C@@H]1C[C@@H]2CCCC[C@@H]2N1)N1CCCC1`, the melting point worked out at 83 °C.

`CS(=O)(=O)c1cc(S(F)(F)(F)(F)F)ccc1C(=O)c1cnoc1C1CC1` showed a melting point of 168 to 170 °C.

`C=C[C@H](O)[C@@H](N)CC1CCCCC1` gave a melting point of 59 to 61 °C.

`CCCn1cc(Cc2ccc(C(=O)OC)cc2OC)c2cc(C=O)ccc21` displayed a melting point of 99 to 100 °C.

With `Cc1c(C)c2c(c(C)c1NC(=O)C(C)C)CC(C)(C)O2`, the melting point is 136 to 138 °C.

In the case of `COc1cc([N+](=O)[O-])ccc1S(=O)(=O)Nc1ccc(C)cc1`, the melting point lay within 126 to 129 °C.

Take `Nc1ncccc1Sc1ccccc1`: the melting point is 108 to 109 °C.

Compound `CCc1cc(C#N)cc(C(=O)Nc2ccc(F)cn2)n1` showed a melting point of 184 °C.

Compound `CN(C)c1ccc(/C=C/c2ccccc2F)c2ccccc12` registered a melting point of 56 to 58 °C.

Compound `COc1ccccc1N1CCN(CCn2c(O)nc3sc4c(c3c2=O)CCN(C(C)=O)C4)CC1` yielded a melting point of 135 to 137 °C.

The compound `CC(Cc1c[nH]c2ccc(F)cc12)C(=O)O` (centres undefined) registered a melting point of 112 to 113 °C.

Take `O=C(O)c1cc2n(n1)CCC2`: the melting point was 140 to 145 °C.

Turning to `CCS(=O)(=O)c1cc(C(C)(C)C)cc(C=O)c1O`, the melting point fell in the range of 92 to 93 °C.

In turn, `C=C(COc1cc(Cl)ccc1C=NNP(=O)(OCC)OCC)C(C)C` yielded a melting point of 103 to 106 °C.

For the compound `CC(C)(C)c1cc(C(=O)c2nccs2)cc2c1OCC2(C)C`, the melting point fell in the range of 101 to 103 °C.

On to `CCNC1CCN(c2c(F)cc3c(=O)c(C(=O)O)cn(C4CC4)c3c2C)CC1(C)C` (centres undefined), for which the melting point lay within 201 to 203 °C.

Take `CC(C)(CO)Oc1ccccc1`: the melting point lay in the range of 91 to 92 °C.

As to `CCOC(=O)CC[C@H](NC(=O)c1ccc(N2CCN(c3c(N)nc(N)nc3CC)CC2)cc1)C(=O)OCC`, the melting point lay in the range of 226 to 228 °C.

As to `O=C(O)c1cc(-n2c(-c3cccs3)cc3c2CCCC3)ccc1O`, the melting point is 211 to 213 °C.

As to `Nc1nc(-c2ccc(CCCCN3CCN(c4cccc5ccccc45)CC3)cc2)cs1`, the melting point was 242 to 245 °C.

Consider `N#Cc1ccccc1-c1ccc(CN2C(=O)C3(COc4cc5c(cc43)CCO5)c3ccccc32)cc1` (centres undefined), for which the melting point lay in the range of 192 to 194 °C.

Turning to `COc1ccc(C2(C)C(=O)Nc3cc(N4CCN(C)CC4)cc(Cl)c3C2=O)cc1` (centres undefined), the melting point was in the range of 201 to 202 °C.

The compound `CC(C)(C)C(=O)c1ccc(C(=O)NC(=O)CCc2ccccc2)cc1` displayed a melting point of 137 to 138 °C.

As to `CCNc1nc(Br)cn2c(Br)cnc12`, the melting point was found to be 131 °C.

In turn, `Cc1c(Cl)ncc2ncc(-c3ccccc3)cc12` registered a melting point of 136 °C.

In turn, `Cc1ccc(S)c(C(=O)O)c1` yielded a melting point of 56 to 58 °C.

The compound `CC(=O)c1cc2cc(C(C)(C)C)ccc2o1` came in with a melting point of 99 to 101 °C.

As for `CCc1cc2c(c(CC)n1)CCC(=O)N2`, the melting point lay in the range of 90 to 94 °C.

`CCOC(=O)c1ccc(OCC2CN(c3cccnn3)CCO2)cc1` (centres undefined) had a melting point of 110 °C.

In turn, `O=C1c2cc(Br)ccc2-n2c1nc1ccccc1c2=O` registered a melting point of 288 to 290 °C.

Take `COC(=O)C1=C(CC(=O)N2CCN(C)CC2)NC(CS(=O)c2ccccc2Cl)=C(C(=O)OC)C1c1c(Cl)cccc1Cl` (centres undefined): the melting point was in the range of 180 to 181 °C.

Turning to `COc1ccc(-c2ccc(C#N)cc2)cc1C(C)=O`, the melting point came out at 102 °C.

The compound `O=S(=O)(Nc1ccc2c(OCc3csc(-c4ccc(F)cc4F)n3)cccc2c1)C(F)(F)F` displayed a melting point of 191 to 192 °C.

Regarding `CCOc1c(Cl)ccc(-c2cc(N)c(Cl)c(C(=O)OC)n2)c1F`, the melting point is 154 to 156 °C.

Take `Cc1nnc(-c2[nH]c3ccccc3c2Cl)o1`: the melting point was in the range of 267 to 268 °C.

Consider `COc1ncnc2nc(-c3ccccc3)cnc12`, for which the melting point lay within 205 to 207 °C.

`CNS(=O)(=O)c1cn(C)c2ccc(OC)cc2c1=O`: the melting point fell in the range of 262 to 264 °C.

Regarding `CN(C)C=NS(=O)(=O)c1ccc(F)c(F)c1`, the melting point is 109 to 112 °C.

`COc1cccc(Oc2cccc(NC(=O)c3ccn4c3CSC4c3cccnc3)c2)c1` (centres undefined) showed a melting point of 130 °C.

For `C[Si](C)(C)CCOC1OC(COC(=O)c2ccccc2)C(O)C(O)C1N=[N+]=[N-]` (centres undefined), the melting point was 55 to 57 °C.

The compound `O=C(CNc1ccc2[nH]c(=O)sc2c1)N1CCC(Cc2ccccc2)CC1` gave a melting point of 196 to 199 °C.

`CC(C)(C)c1ccc(/C=C/CO[Si](C)(C)C(C)(C)C)cc1[N+](=O)[O-]` displayed a melting point of 33 to 34 °C.

For the compound `COc1ccc(C(CC(=O)O)N2C(=O)c3cccc([N+](=O)[O-])c3C2=O)cc1` (centres undefined), the melting point lay within 178 to 180 °C.

Take `CCOC(=O)c1c(-c2ccccc2)c(-c2ccc(F)cc2)cn1C(C)C`: the melting point is 104 to 105 °C.

As to `O=C(Nc1cc(Cl)ncn1)c1ccccc1SSc1ccccc1C(=O)Nc1cc(Cl)ncn1`, the melting point is 254 to 256 °C.

In turn, `COc1ccc(S(=O)(=O)Nc2cccnc2Nc2ccc(OC(=O)c3ccccc3)cc2)cc1` yielded a melting point of 208 to 210 °C.

In turn, `CCOC(=O)C1=C(COCc2nnn(CCNc3nc(N)n[nH]3)n2)NC(C)=C(C(=O)OC)C1c1cccc(Cl)c1Cl` (centres undefined) returned a melting point of 85 °C.

`CCOP(=O)(OCC)C(C)NC(=O)c1cc(C)cc(OC)c1C1=CC(=O)c2c(O)cccc2C1=O` (centres undefined): the melting point lay in the range of 130 to 132 °C.

On to `O=C1Oc2cc(O)ccc2CN1C1CCCCC1`, for which the melting point is 193 to 196 °C.

In turn, `CN[C@@H](CSC(c1ccccc1)(c1ccccc1)c1ccccc1)C(=O)O` returned a melting point of 114 °C.

The compound `C=CCN1CC(c2ccc([N+](=O)[O-])cc2F)CCS1(=O)=O` (centres undefined) had a melting point of 121 °C.

For the compound `C#CCOC(=O)c1cc(Br)c(O)c(OC)c1`, the melting point lay in the range of 121 to 122 °C.

`CCOC(=O)c1cc(NCc2ccccc2)c(Nc2ccc(Cl)cc2)c(S(N)(=O)=O)c1`: the melting point amounted to 187 °C.

On to `CC(=O)OCCN(C(=O)Cn1c(=O)n(C)c2nc(-c3ccccc3)ncc21)c1ccccc1`, for which the melting point lay within 158 to 160 °C.

`CS(=O)(=O)Nc1ccc(C(O)CCCNCCC(=O)CCC2CCCC2)cc1` (centres undefined) yielded a melting point of 101 to 102 °C.

As for `COc1ccc(CNS(=O)(=O)CCCCl)cc1`, the melting point lay in the range of 78 to 80 °C.

With `CS(=O)c1ccc(-n2[nH]c3ccccc3c2=O)cc1` (centres undefined), the melting point lay in the range of 208 to 210 °C.
